# Reference: patent publication US5439892A, “Dextrin sulfates as anti HIV-1 agents and composition thereof” (ML Laboratories, priority 1990, dated 1995)
# Like-named read-outs stand apart in the source and are kept apart here.
# Tests used:
# HIV-1 (RF) [1] = assay: microbe, parasite or virus in culture; assay type: cell-based; settings: for decrease in infectivity titre: RF
# Procedure: The human T-leukamic cell line C8166 was grown in RPMI 1640 with 10% FCS.
# Various strains of HIV-1 (RF. IIIB, CBL-4, Z84 and Z129) were produced in chronically infected H9 cells. A five-fold excess of uninfected H9 cells was added to the culture five days prior to harvesting the supernatant which is clarified by centrifugation and stored in liquid nitrogen.
# Induction of cytopathic effects on CD4^+ C8166 by HIV was assayed by multi-nucleated giant cell formation (syncytia).
# (§1) HIV-1 (RF) was titrated in 10-fold dilutions onto C8166 cells in the presence of varying concentrations of drug. […] The figures in the table represent the logarithm to the base 10 of the figure actually determined. For instance, a figure of -6 in the table represents a determined result of 10^-6.
# HIV-1 (RF) [2] = assay type: cell-based
# Text: as §1
# HIV-1 IIIB = assay: decrease in infectivity titre in C8166 cells, HIV-1 IIIB; assay type: cell-based; settings: for decrease in infectivity titre: IIIB, C8166 cells
# HIV-1 CBL-4 = assay: decrease in infectivity titre in C8166 cells, HIV-1 CBL-4; assay type: cell-based; settings: for decrease in infectivity titre: CBL-4, C8166 cells
# [3] = toxicity: cell viability by [3H]-thymidine uptake in PHA-stimulated human PBL; assay type: cell-based; settings: human, pha-stimulated pbl, 3 days, mean of quadruplicate, read-out: Thymidine uptake (% of control with no drug)
# Procedure: (§2) Normal human peripheral blood lymphocytes (PBL) were fractionated on Ficoll-Hypaque (Pharmacia Chemicals, Uppsala, Sweden) from venous blood collected in preservative-free heparin. They were mitogenetically stimulated with phytohaemaglutinin (PHA) (1 ug/ml) for 3 days and maintained in the medium RPMI 1640 supplemented by 20% foetal calf serum (FCS)+interleukin-2 (IL2) ([…]).
# (§3) The relative toxicities of the materials tested in example 4 were evaluated by reference to cell viability in the presence of the drugs as measured by the relative uptake of [^3 H]- thymidine. Human PBL (10^6 cells/well) in 96 microtitre plates was stimulated with PHA in the presence of increasing concentration of drug for 3 days. Following a 5 hour probe with [^3 H]- thymidine (0.5 uCi/well), the cells were harvested and counted. The results shown represent the mean of quadruplicate experiments and are presented as the percentage incorporation of [^3 H]-thymidine in the presence of drug, compared to control experiments without drug.
# Human PBL = assay: as above; assay type: cell-based; settings: around 200 ug/ml
# Procedure: as §2, §3
# IIIb = assay: minimum concentration inhibiting syncytia formation in M8166 JH11 cells, IIIb; assay type: cell-based, HIV-1; settings: 10^3 TCID
# Procedure: (§4) 50 ul samples of dextran sulphate and of the 2-, 3- and 6-sulphate derivatives of dextrin of Examples 3, 1 and 2 respectively were pre-incubated at 37° C. onto duplicate cultures of 4×10^5M8166 JH11 cells per ml (50 ul) at final concentrations of […] for one hour.
# RF = assay: minimum concentration inhibiting syncytia formation in M8166 JH11 cells, RF; assay type: cell-based, HIV-1; settings: for inhibitory concentration (minimum concentration at which syncytia formation was <10% that of controls): RF, 10^3 TCID, M8166 JH11 cells
# Procedure: as §4
# RUT = assay: minimum concentration inhibiting syncytia formation in M8166 JH11 cells, RUT; assay type: cell-based, HIV-1; settings: 10^2 TCID
# Procedure: as §4
# CBL20 = assay: minimum concentration inhibiting syncytia formation in M8166 JH11 cells, CBL20; assay type: cell-based, HIV-1; settings: 10^3 TCID
# Procedure: as §4
# Bovine Thrombin = assay: anti-coagulant activity: clot formation time of pooled normal plasma after bovine thrombin; assay type: biochemical; settings: comparison among dextrin sulphates
# Procedure: The materials to be tested were each dissolved in veronal buffer to a concentration of 1 mg/ml=1000 ug/ml and a further dilution of 100 ug/ml was made by a 1:10 dilution in veronal buffer. Pooled normal plasma (1 ml) was then placed into each of nine plastic tubes. The solutions containing the materials to be tested were then added to the plasma to achieve a range of final concentrations from 1-300 ug/ml, in each case the volume being made up to 1.5 ml with veronal buffer. The resultant mixtures were incubated at 37° C. for 30 minutes, following which two 0.2 ml aliquots were extracted from each sample into glass tubes (Samples A and B), and 0.1 ml 7 U Bovine Thrombin was added and clot formation timed.
# HIV-1 [4] = assay: activity against HIV-1 virus (general statement); settings: comparison among dextrin sulphates
# HIV-1 [5] = assay: inhibition of syncytia formation, overall over IIIb, RF, RUT, CBL20; assay type: cell-based; settings: compared with dextran sulphate (MW 8,000) and dextrin 3-sulphate
# Procedure: as §4
# [6] = 0.1 ug/ml, HIV-1 (RF), C8166 cells
# [7] = 1.0 ug/ml, HIV-1 (RF), C8166 cells
# [8] = 10 ug/ml, HIV-1 (RF), C8166 cells
# [9] = 100 ug/ml, HIV-1 (RF), C8166 cells
# [10] = Human immunodeficiency virus 1, C8166, read-out: decrease in infectivity titre
# [11] = Human immunodeficiency virus 1, IIIB, C8166, read-out: decrease in infectivity titre
Molecule,Final dilution of the virus at which syncytia are produced (logarithm to the base 10) (HIV-1 (RF) [1]; [6]),Final dilution of the virus at which syncytia are produced (logarithm to the base 10) (HIV-1 (RF) [1]; [7]),Final dilution of the virus at which syncytia are produced (logarithm to the base 10) (HIV-1 (RF) [1]; [8]),Final dilution of the virus at which syncytia are produced (logarithm to the base 10) (HIV-1 (RF) [1]; [9]),"Inhibition of HIV-1 (RF), live cell (C8166) reduction of MTT, estimated visually (HIV-1 (RF) [2]; 1.0 ug/ml)","Inhibition of HIV-1 (RF), live cell (C8166) reduction of MTT, estimated visually (HIV-1 (RF) [2]; 10 ug/ml)",inhibitory concentration (minimum concentration at which syncytia formation was <10% that of controls) (IIIb),inhibitory concentration (minimum concentration at which syncytia formation was <10% that of controls) (RF),inhibitory concentration (minimum concentration at which syncytia formation was <10% that of controls) (RUT),inhibitory concentration (minimum concentration at which syncytia formation was <10% that of controls) (CBL20),anti-coagulant activity in words (Bovine Thrombin),anti-HIV activity in words (HIV-1 [4]),overall effectiveness (HIV-1 [5]),other results
"Cc1cn([C@H]2C[C@H](N=[N+]=[N-])[C@@H](CO)O2)c(=O)[nH]c1=O [AZT, zidovidine]",-4,-3.5,-3,-3,-,-,,,,,,,,"log reduction at 10 µg/mL (HIV-1 (RF) [1]; [10]): 3; log reduction at 50 µg/mL (HIV-1 (RF) [1]; [10]): 3; log reduction at 1 µg/mL (HIV-1 (RF) [1]; Human immunodeficiency virus 1, C8166, read-out: inhibition (reduction of the infectious titre)): 2.5; log reduction at 10 µg/mL (HIV-1 (RF) [1]; Human immunodeficiency virus 1, C8166, read-out: reduction of the infectious titre): 3; Inhibition of HIV-1 (RF), live cell (C8166) reduction of MTT, estimated visually (HIV-1 (RF) [2]; 0.1 ug/ml): -; log reduction at 10 µg/mL (HIV-1 IIIB; [11]): 4; log reduction at 50 µg/mL (HIV-1 IIIB; [11]): 4; log reduction at 10 µg/mL (HIV-1 CBL-4; [10]): 4; log reduction at 50 µg/mL (HIV-1 CBL-4; [10]): 4; viability at 72 h ([3]; 5 ug/ml): 20%; viability at 72 h ([3]; 10 ug/ml): 15%; viability at 72 h ([3]; 25 ug/ml): 5%; viability at 72 h ([3]; 50 ug/ml): 2%; viability at 72 h ([3]; 71 ug/ml): 1%; viability at 72 h ([3]; 100 ug/ml): 1%; viability at 72 h ([3]; 200 ug/ml): 0%; toxicity in words (Human PBL): very highly toxic"
Dextran,-6,-6,-6,,,-,,,,,,,,"effect against HIV replication (HIV-1 (RF) [1]; HIV-1 (RF), C8166 cells): ineffective against HIV replication"
dextrin 2-sulphate,,-4,-2,-2,-,-,5 µg/µL,5 µg/µL,5 µg/µL,50 µg/µL,least anti-coagulant,about the same activity against the HIV-1 virus as the dextrin 6sulphate,overall greater effectiveness,"inhibition (reduction of the infectious titre) (HIV-1 (RF) [1]; 1 ug/ml, HIV-1 (RF), C8166 cells): 2 logs; reduction of the infectious titre (HIV-1 (RF) [1]; [8]): 3 logs; decrease in infectivity titre (HIV-1 (RF) [1]; 10 ug/ml, C8166 cells): 5 log units; decrease in infectivity titre (HIV-1 (RF) [1]; 50 ug/ml, C8166 cells): 6 log units; inhibition of syncytial induction on C8166 cells (HIV-1 (RF) [1]; compared with AZT and dextran sulphate): inhibits syncytial induction on C8166 cells with greater effect than either AZT or dextran sulphate; decrease in infectivity titre (HIV-1 IIIB; 10 ug/ml): 3 log units; decrease in infectivity titre (HIV-1 IIIB; 50 ug/ml): 5 log units; decrease in infectivity titre (HIV-1 CBL-4; 10 ug/ml): 0 log units; decrease in infectivity titre (HIV-1 CBL-4; 50 ug/ml): 4 log units"
dextrin 3-sulphate,,,,,,,50 µg/µL,5 µg/µL,50 µg/µL,> 50 µg/µL,least anti-coagulant,"relatively poor anti-HIV activity, by comparison with dextrin 2- and 6-sulphates",,"effectiveness against RF (RF; compared with dextran sulphate (MW 8,000)): more effective than dextran sulphate against RF"
dextrin 6-sulphate,,,,,,,5 µg/µL,5 µg/µL,50 µg/µL,> 50 µg/µL,greater anti-coagulant activity,,overall greater effectiveness,
